Here are results for 14 molecules from US10821115B2, “Compounds that inhibit Mcl-1 protein” (priority 2017, dated 2020).

Test [1] deals with human multiple myeloma cell line, OPM-2. Description: Cell viability assay (OPM-2 10 FBS), CellTiter-Glo. It counts as cell-based. In short, it runs like this: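 OPM-2 cells at 3000 cells/well in RPMI 1640 with 10% FBS were exposed to serially diluted compounds for 16 h at 37 °C, 5% CO2.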
Background: In ATP-based viability assays light output follows the ATP content of the culture.

Test [2] addresses recombinant human Mcl-1 (residues 171-327) / Bim interaction (Homo sapiens (Human), UniProt Q07820). Briefly: biochemical. Format: binding. To be noted: read-out: Mcl-1 HTRF IC50. Background: Time-resolved FRET reads energy transfer from a long-lived donor to a nearby acceptor.
The mark [3] stands for this setting: Homo sapiens, OPM-2, 16 h, read-out: OPM-2 10% FBS IC50 IP, OPM-2 cells, 10% FBS, 16 h, CellTiter-Glo.
The mark [4] stands for this setting: TR-FRET, Mcl-1(171-327) / biotin-Bim (51-76).
[5] abbreviates: Homo sapiens, OPM-2, 16 h, read-out: OPM-2 10% FBS IC50 IP, OPM-2 cells, 10% FBS, 16 h incubation.
Setting [6] is: 0.1 nM Mcl-1(171-327), 0.05 nM biotin-Bim (51-76).
The mark [7] stands for this setting: read-out: OPM-2 10% FBS IC50 IP, OPM-2 cells, 10% FBS, 16 h, CellTiter-Glo.

Read-outs that look alike come from different tables or passages of the source.

Chain of recombinant human Mcl-1 (residues 171-327) / Bim interaction (Q07820 171-327): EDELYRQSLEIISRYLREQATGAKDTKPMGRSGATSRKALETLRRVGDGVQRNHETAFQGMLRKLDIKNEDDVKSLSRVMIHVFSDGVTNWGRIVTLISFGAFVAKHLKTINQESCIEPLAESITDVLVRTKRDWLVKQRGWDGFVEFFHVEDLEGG

Usually IC50 stands for the midpoint of a concentration-inhibition curve. As for `C[C@@H]1[C@@H](C)C/C=C/[C@@](O)(C#N)[C@@H]2CC[C@H]2CN2C[C@@]3(CCCc4cc(Cl)ccc43)COc3ccc(cc32)C(=O)NS1(=O)=O` [Example 100235, (1S,3′R,6′R,7′S,8′E,11′S,12′R)-6-chloro-7′-hydroxy-11′,12′-dimethyl-15′-oxo-3,4-dihydro-2H-spiro[naphthalene-1,22′-[20]oxa[13]thia[1,14]diazatetracyclo [14.7.2.0~3,6~.0~19,24~]pentacosa[8,16,18,24]tetraene]-7′-carbonitrile 13′,13′-dioxide], the IC50 in test [1] (setting [3]) is 644 nM; in test [2] (setting [4]) it was 1.34 nM.
As for `CO[C@@]1(CN2CCN3CCOC[C@H]3C2)/C=C/C[C@H](C)[C@@H](C)S(=O)(=O)NC(=O)c2ccc3c(c2)N(C[C@@H]2CC[C@H]21)C[C@@]1(CCCc2cc(Cl)ccc21)CO3` [Example 57, (1S,3′R,6′R,7′S,8′E,11′S,12′R)-6-chloro-7′-((9aR)-hexahydropyrazino[2,1-c][1,4]oxazin-8(1H)-ylmethyl)-7′-methoxy-11′,12′-dimethyl-3,4-dihydro-2H,15′H-spiro[naphthalene-1,22′-[20]oxa[13]thia[1,14]diazatetracyclo [14.7.2.0~3,6~.0~19,24~]pentacosa[8,16,18,24]tetraen]-15′-one 13′,13′-dioxide], the 50% inhibitory concentration (IC50) in test [1] (setting [5]) was found to be 90 nM; in test [2] (setting [6]) it was 0.258 nM.
Take `COc1ncccc1[C@@]1(O)/C=C/C[C@H](C)[C@@H](C)S(=O)(=O)NC(=O)c2ccc3c(c2)N(C[C@@H]2CC[C@H]21)C[C@@]1(CCCc2cc(Cl)ccc21)CO3` (single isomer, unassigned) [Example 100334]: the figures for the IC50 in test [1] (setting [7]) and in test [2] (setting [4]) were 1470 nM and 3.27 nM, respectively.
In the same order, the values of `C[C@@H]1[C@@H](C)CCC[C@@](O)(Cc2nccn2C)[C@@H]2CC[C@H]2CN2C[C@@]3(CCCc4cc(Cl)ccc43)COc3ccc(cc32)C(=O)NS1(=O)=O` [Example 100163, (1S,3′R,6′R,7′R,11′S,12′R)-6-chloro-7′-hydroxy-11′,12′-dimethyl-7′-((1-methyl-1H-imidazol-2-yl)methyl)-3,4-dihydro-2H,15′H-spiro[naphthalene-1,22′-[20]oxa[13]thia[1,14]diazatetracyclo [14.7.2.0~3,6~.0~19,24~]pentacosa[16,18,24]trien]-15′-one 13′,13′-dioxide] are 1000 nM and 2.79 nM.
Take `C[C@@H]1[C@@H](C)C/C=C/C(O)(Cc2nccn2C)[C@@H]2CC[C@H]2CN2C[C@@]3(CCCc4cc(Cl)ccc43)COc3ccc(cc32)C(=O)NS1(=O)=O` (stereo in doubt) [Example 100524, (1S,3′R,6′R,7′R,8′E,11′S,12′R)-6-chloro-7′-hydroxy-11′,12′-dimethyl-7′-((1-methyl-1H-imidazol-2-yl)methyl)-3,4-dihydro-2H,15′H-spiro[naphthalene-1,22′-[20]oxa[13]thia[1,14]diazatetracyclo [14.7.2.0~3,6~.0~19,24~]pentacosa[8,16,18,24]tetraen]-15′-one 13′,13′-dioxide]: the IC50 in test [1] (setting [3]) was determined as 842 nM; in test [2] (setting [4]) it was 0.99 nM.
For `Cc1onc(C[C@]2(O)/C=C/C[C@H](C)[C@@H](C)S(=O)(=O)NC(=O)c3ccc4c(c3)N(C[C@@H]3CC[C@H]32)C[C@@]2(CCCc3cc(Cl)ccc32)CO4)c1C` [Example 100578, (1S,3′R,6′R,7′S,8′E,11′S,12′R)-6-chloro-7′-((4,5-dimethyl-1,2-oxazol-3-yl)methyl)-7′-hydroxy-11′,12′-dimethyl-3,4-dihydro-2H,15′H-spiro[naphthalene-1,22′-[20]oxa[13]thia[1,14]diazatetracyclo [14.7.2.0~3,6~.0~19,24~]pentacosa[8,16,18,24]tetraen]-15′-one 13′,13′-dioxide] the same measures were 595 nM and 0.089 nM.
In the same order, the values of `CO[C@@]1(c2cncnc2)/C=C/C[C@H](C)[C@@H](C)S(=O)(=O)NC(=O)c2ccc3c(c2)N(C[C@@H]2CC[C@H]21)C[C@@]1(CCCc2cc(Cl)ccc21)CO3` [Example 100468, (1S,3′R,6′R,7′S,8′E,11′S,12′R)-6-chloro-7′-methoxy-11′,12′-dimethyl-7′-(5-pyrimidinyl)-3,4-dihydro-2H,15′H-spiro[naphthalene-1,22′-[20]oxa[13]thia[1,14]diazatetracyclo [14.7.2.0~3,6~.0~19,24~]pentacosa[8,16,18,24]tetraen]-15′-one 13′,13′-dioxide] are 943 nM and 0.393 nM.
With `CO[C@@]1(CN2CCCCC2)/C=C/C[C@H](C)[C@@H](C)S(=O)(=O)NC(=O)c2ccc3c(c2)N(C[C@@H]2CC[C@H]21)C[C@@]1(CCCc2cc(Cl)ccc21)CO3` [Example 75, (1S,3′R,6′R,7′S,8′E,11′S,12′R)-6-chloro-7′-methoxy-11′,12′-dimethyl-7′-(1-piperidinylmethyl)-3,4-dihydro-2H,15′H-spiro[naphthalene-1,22′-[20]oxa[13]thia[1,14]diazatetracyclo [14.7.2.0~3,6~.0~19,24~]pentacosa[8,16,18,24]tetraen]-15′-one 13′,13′-dioxide], the IC50 was found to be 1610 nM in test [1] (setting [5]) and 2.05 nM in test [2] (setting [6]).
Turning to `CCN1[C@H](C)CN(C[C@@]2(OC)/C=C/C[C@H](C)[C@@H](C)S(=O)(=O)NC(=O)c3ccc4c(c3)N(C[C@@H]3CC[C@H]32)C[C@@]2(CCCc3cc(Cl)ccc32)CO4)C[C@@H]1C` [Example 341, (1S,3′R,6′R,7′R,8′E,11′S,12′R)-6-chloro-7′-(((3R,5S)-4-ethyl-3,5-dimethyl-1-piperazinyl)methyl)-7′-methoxy-11′,12′-dimethyl-3,4-dihydro-2H,15′H-spiro[naphthalene-1,22′-[20]oxa[13]thia[1,14]diazatetracyclo [14.7.2.0~3,6~.0~19,24~]pentacosa[8,16,18,24]tetraen]-15′-one 13′,13′-dioxide], the IC50 in test [1] (setting [5]) came to 42 nM; in test [2] (setting [6]), 0.052 nM.
In the same order, the values of `CO[C@@]1(CN2CCN3CCOC[C@@H]3C2)/C=C/[C@H](C)[C@H](C)CS(=O)(=O)NC(=O)c2ccc3c(c2)N(C[C@@H]2CC[C@H]21)C[C@@]1(CCCc2cc(Cl)ccc21)CO3` [Example 156, (1S,3′R,6′R,7′S,8′E,10′S,11′S)-6-chloro-7′-((9aS)-hexahydropyrazino[2,1-c][1,4]oxazin-8(1H)-ylmethyl)-7′-methoxy-10′,11′-dimethyl-3,4-dihydro-2H,15′H-spiro[naphthalene-1,22′-[20]oxa[13]thia[1,14]diazatetracyclo [14.7.2.0~3,6~.0~19,24~]pentacosa[8,16,18,24]tetraen]-15′-one 13′,13′-dioxide] are 62 nM and 0.096 nM.
In the same order, the values of `CO[C@@]1(CN2CCN(CCC#N)CC2)/C=C/C[C@H](C)[C@@H](C)S(=O)(=O)NC(=O)c2ccc3c(c2)N(C[C@@H]2CC[C@H]21)C[C@@]1(CCCc2cc(Cl)ccc21)CO3` [Example 318, 3-(4-(((1S,3′R,6′R,7′S,8′E,11′S, 12′R)-6-chloro-7′-methoxy-11′,12′-dimethyl-13′,13′-dioxido-15′-oxo-3,4-dihydro-2H-spiro[naphthalene-1,22′-[20]oxa[13]thia[1,14]diazatetracyclo [14.7.2.0~3,6~.0~19,24~]pentacosa[8,16,18,24]tetraen]-7′-yl)methyl)-1-piperazinyl)propanenitrile] are 77 nM and 0.138 nM.
Turning to `CO[C@@]1(Cc2nc(CN3CCOCC3)c(C)o2)/C=C/C[C@H](C)[C@@H](C)S(=O)(=O)NC(=O)c2ccc3c(c2)N(C[C@@H]2CC[C@H]21)C[C@@]1(CCCc2cc(Cl)ccc21)CO3` [Example 100587, (1S,3′R,6′R,7′S,8′E,11′S,12′R)-6-chloro-7′-methoxy-11′,12′-dimethyl-7′-((5-methyl-4-(4-morpholinylmethyl)-1,3-oxazol-2-yl)methyl)-3,4-dihydro-2H,15′H-spiro[naphthalene-1,22′-[20]oxa[13]thia[1,14]diazatetracyclo [14.7.2.0~3,6~.0~19,24~]pentacosa[8,16,18,24]tetraen]-15′-one 13′,13′-dioxide], the IC50 in test [1] (setting [3]) was determined as 177 nM; in test [2] (setting [4]), 0.136 nM.
For `CCCN1CCN(C[C@@]2(OC)/C=C/C[C@H](C)[C@@H](C)S(=O)(=O)NC(=O)c3ccc4c(c3)N(C[C@@H]3CC[C@H]32)C[C@@]2(CCCc3cc(Cl)ccc32)CO4)CC1` [Example 97, (1S,3′R,6′R,7′R,8′E,11′S,12′R)-6-chloro-7′-methoxy-11′,12′-dimethyl-7′-((4-propyl-1-piperazinyl)methyl)-3,4-dihydro-2H,15′H-spiro[naphthalene-1,22′-[20]oxa[13]thia[1,14]diazatetracyclo [14.7.2.0~3,6~.0~19,24~]pentacosa[8,16,18,24]tetraen]-15′-one 13′,13′-dioxide], the IC50 in test [1] (setting [5]) came to 228 nM; in test [2] (setting [6]) it was 0.299 nM.
As for `CO[C@@]1(CN2CCN(Cc3ncccn3)CC2)/C=C/C[C@H](C)[C@@H](C)S(=O)(=O)NC(=O)c2ccc3c(c2)N(C[C@@H]2CC[C@H]21)C[C@@]1(CCCc2cc(Cl)ccc21)CO3` [Example 338, (1S,3′R,6′R,7′S,8′E,11′S,12′R)-6-chloro-7′-methoxy-11′,12′-dimethyl-7′-((4-(2-pyrimidinylmethyl)-1-piperazinyl)methyl)-3,4-dihydro-2H,15′H-spiro[naphthalene-1,22′-[20]oxa[13]thia[1,14]diazatetracyclo [14.7.2.0~3,6~.0~19,24~]pentacosa[8,16,18,24]tetraen]-15′-one 13′,13′-dioxide], the IC50 turned out to be 57 nM in test [1] (setting [5]) and 0.1 nM in test [2] (setting [6]).
